Data as given in patent publication US5436229A, “Bisulfite adducts of arginine aldehydes” (Eli Lilly and Company, priority 1994, dated 1995).
Non-standard residues stand in square brackets, D forms with d. Residues, ends and D or L forms follow the SMILES beside them. dNMeCha = CN[C@H](CC1CCCCC1)C(=O)O

Tests used:
[1] = Epimerization inhibition by sodium bisulfite (compound of Example 75); format: physicochemical; conditions: pH 7.4, 50° C.
Experimental: A 55.55 mM aqueous sodium phosphate solution (adjusted to pH 7.4 with sodium hydroxide) was mixed with an aqueous 27.77 mM sodium bisulfite/27.77 mM sodium phosphate solution (adjusted to pH 7.4 with sodium hydroxide) and water in various ratios to produce buffers containing 0, 5.55, 11.11, 16.66, 22.22 and 27.77 mM sodium bisulfite. A 0.9 ml aliquot of each sodium bisulfite/phosphate buffer was added to separate 13×100 mm culture tubes and placed in a 50° C. Tempblok® heater for 15 minutes. To each culture tube 0.1 ml of a 1 mg/ml aqueous solution of the compound of Example 75 was added and mixed well. […] These samples were allowed to react for 30 minutes at 60° C. and were then evaporated to dryness with nitrogen in a 55° C. N-Evap. The residue was dissolved in 1 ml of methanol and transferred to Varian Si BondElut SPE columns (1 ml) previously conditioned with 2 ml of water then 2 ml of methanol. The dissolved samples were pulled through slowly with a slight vaccum, and the sorbent layer was then washed with 2-1 ml volumes of methanol. The SPE columns were then dried at full vacuum (~25 in. Hg) then 500 μl of 500 mM potassium chloride was passed through the SPE columns. The compounds of interest were eluted with 300 μl of methanol/500 mM potassium chloride (1:1, v/v) into 12×75 mm culture tubes. These eluates were analyzed by the HPLC system described below.
The mobile phase was acetonitrile/methanol/500 mM ammonium acetate pH 7 (3:3:4, v/v) pumped at 1 ml/min with a Shimadzu LC-10AD pump. The column was a Zorbax SB-C8 150×4.6 mm maintained at 40° C. with a Jones Chromatography 7960 column heater. Fifty microliter injections were made with a Waters WISP 712 autosampler. Detection was accomplished with a Kratos 783 UV detector at 360 nm. The percentage of the DLD isomer was calculated using the peak areas of the DLL and DLD isomers in the chromatograms and the following equation: [formula]

factor Xa = biological target: T1, factor Xa (Homo sapiens, UniProt P00742); assay: Serine protease inhibition (Kass), factor Xa; format: biochemical
T1 construct: Human factors X, Xa, IXa, XIa, and XIIa are purchased from Enzyme Research Laboratories; purchased Enzyme Research Laboratories, South Bend, Ind
T1 sequence (P00742 235-488 limits assumed): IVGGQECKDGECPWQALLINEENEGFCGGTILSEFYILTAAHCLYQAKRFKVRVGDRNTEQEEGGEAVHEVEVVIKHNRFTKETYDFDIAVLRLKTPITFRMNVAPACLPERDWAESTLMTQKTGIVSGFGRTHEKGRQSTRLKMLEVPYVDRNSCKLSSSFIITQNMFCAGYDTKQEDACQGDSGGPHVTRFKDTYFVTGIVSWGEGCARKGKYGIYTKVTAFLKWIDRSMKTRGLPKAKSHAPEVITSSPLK
T1 sequence (P00742 41-179 partner limits assumed): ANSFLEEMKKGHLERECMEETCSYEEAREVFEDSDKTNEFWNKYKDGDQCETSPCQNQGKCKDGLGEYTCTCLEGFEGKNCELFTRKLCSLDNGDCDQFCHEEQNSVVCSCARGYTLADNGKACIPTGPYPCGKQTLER
How it was run: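 Chromogenic p-nitroanilide substrate assays run as for human thrombin; trypsin with N-Benzoyl-Phe-Val-Arg-p-nitroanilide, human factor Xa with N-Benzoyl-Ile-Glu-Gly-Arg-p-nitroanilide. Values are association constants (Kass).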

human plasma = assay: Human plasma anticoagulation, thrombin time (TT); format: biochemical
How it was run: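 Compounds added across a wide concentration range to human plasma; APTT, PT and TT clotting times measured on a coagulation instrument, bovine thrombin used for plasma assays. Concentration doubling clotting time estimated by linear extrapolation.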

With `CN[C@H](CC1CCCCC1)C(=O)N1CCC[C@H]1C(=O)N[C@H](C=O)CCCNC(=N)N.Cl` [Example 75, N-methyl-D-cyclohexylalanyl-L-Prolinyl-L-Arginine Aldehyde Hydrochloride] (H-[dNMeCha]-Pro-Arg-aldehyde) the “Percentage of DLD Isomer” value ([1]; sodium bisulfite 0 mM, 0 hr) was 7.33%, the “Percentage of DLD Isomer” value ([1]; sodium bisulfite 0 mM, 0.5 hr) was 31.91% and the “Percentage of DLD Isomer” value ([1]; sodium bisulfite 0 mM, 2 hr) was 48.95%. The “Percentage of DLD Isomer” value ([1]; sodium bisulfite 0 mM, 3 hr) was 50.21%, the “Percentage of DLD Isomer” value ([1]; sodium bisulfite 0 mM, 4 hr) was 50.27% and the “Percentage of DLD Isomer” value ([1]; sodium bisulfite 0 mM, 6 hr) was 50.03%. The “Percentage of DLD Isomer” value ([1]; sodium bisulfite 0 mM, 8 hr) was 50.15%, the “Percentage of DLD Isomer” value ([1]; sodium bisulfite 0 mM, […]) was 44.72% and the “Percentage of DLD Isomer” value ([1]; sodium bisulfite 5 mM, 0 hr) was 7.35%. For the same compound, the “Percentage of DLD Isomer” value ([1]; sodium bisulfite 5 mM, 0.5 hr) was 14.64%, the “Percentage of DLD Isomer” value ([1]; sodium bisulfite 5 mM, 2 hr) was 34.64% and the “Percentage of DLD Isomer” value ([1]; sodium bisulfite 5 mM, 3 hr) was 42.75%. The “Percentage of DLD Isomer” value ([1]; sodium bisulfite 5 mM, 4 hr) was 47.21%, the “Percentage of DLD Isomer” value ([1]; sodium bisulfite 5 mM, 6 hr) was 48.75% and the “Percentage of DLD Isomer” value ([1]; sodium bisulfite 5 mM, 8 hr) was 49.61%. For the same compound, the “Percentage of DLD Isomer” value ([1]; sodium bisulfite 5 mM, […]) was 24.74%, the “Percentage of DLD Isomer” value ([1]; sodium bisulfite 10 mM, 0 hr) was 7.54% and the “Percentage of DLD Isomer” value ([1]; sodium bisulfite 10 mM, 0.5 hr) was 10.79%. The “Percentage of DLD Isomer” value ([1]; sodium bisulfite 10 mM, 2 hr) was 25.55%, the “Percentage of DLD Isomer” value ([1]; sodium bisulfite 10 mM, 3 hr) was 35.08% and the “Percentage of DLD Isomer” value ([1]; sodium bisulfite 10 mM, 4 hr) was 41.99%. For the same compound, the “Percentage of DLD Isomer” value ([1]; sodium bisulfite 10 mM, 6 hr) was 50.73%, the “Percentage of DLD Isomer” value ([1]; sodium bisulfite 10 mM, 8 hr) was 51.60% and the “Percentage of DLD Isomer” value ([1]; sodium bisulfite 10 mM, […]) was 17.72%. For the same compound, the “Percentage of DLD Isomer” value ([1]; sodium bisulfite 15 mM, 0 hr) was 8.37%, the “Percentage of DLD Isomer” value ([1]; sodium bisulfite 15 mM, 0.5 hr) was 10.31% and the “Percentage of DLD Isomer” value ([1]; sodium bisulfite 15 mM, 2 hr) was 21.41%. For the same compound, the “Percentage of DLD Isomer” value ([1]; sodium bisulfite 15 mM, 3 hr) was 28.54%, the “Percentage of DLD Isomer” value ([1]; sodium bisulfite 15 mM, 4 hr) was 35.26% and the “Percentage of DLD Isomer” value ([1]; sodium bisulfite 15 mM, 6 hr) was 46.26%. For the same compound, the “Percentage of DLD Isomer” value ([1]; sodium bisulfite 15 mM, 8 hr) was 50.58%, the “Percentage of DLD Isomer” value ([1]; sodium bisulfite 15 mM, […]) was 15.19% and the “Percentage of DLD Isomer” value ([1]; sodium bisulfite 20 mM, 0 hr) was 7.65%. For the same compound, the “Percentage of DLD Isomer” value ([1]; sodium bisulfite 20 mM, 0.5 hr) was 9.90%, the “Percentage of DLD Isomer” value ([1]; sodium bisulfite 20 mM, 2 hr) was 17.28% and the “Percentage of DLD Isomer” value ([1]; sodium bisulfite 20 mM, 3 hr) was 23.70%. For the same compound, the “Percentage of DLD Isomer” value ([1]; sodium bisulfite 20 mM, 4 hr) was 29.34%, the “Percentage of DLD Isomer” value ([1]; sodium bisulfite 20 mM, 6 hr) was 43.32% and the “Percentage of DLD Isomer” value ([1]; sodium bisulfite 20 mM, 8 hr) was 48.73%. The “Percentage of DLD Isomer” value ([1]; sodium bisulfite 20 mM, […]) was 12.88%, the “Percentage of DLD Isomer” value ([1]; sodium bisulfite 25 mM, 0 hr) was 8.16% and the “Percentage of DLD Isomer” value ([1]; sodium bisulfite 25 mM, 0.5 hr) was 9.47%. For the same compound, the “Percentage of DLD Isomer” value ([1]; sodium bisulfite 25 mM, 2 hr) was 14.78%, the “Percentage of DLD Isomer” value ([1]; sodium bisulfite 25 mM, 3 hr) was 18.66% and the “Percentage of DLD Isomer” value ([1]; sodium bisulfite 25 mM, 4 hr) was 24.34%. For the same compound, the “Percentage of DLD Isomer” value ([1]; sodium bisulfite 25 mM, 6 hr) was 37.60%, the “Percentage of DLD Isomer” value ([1]; sodium bisulfite 25 mM, 8 hr) was 46.26% and the “Percentage of DLD Isomer” value ([1]; sodium bisulfite 25 mM, […]) was 11.42%. For the same compound, the “Kass Xa” value (factor Xa) was 5.6 L/mol × 10^6 and the “2 × Clotting time TT” value (human plasma) was 18 ng/mL.
